From ChEMBL document CHEMBL3588834, “Towards bacterial adhesion-based therapeutics and detection methods” (Medchemcomm, 2014)

Assays:
[1] = Stability in mouse urinary bladder assessed as unchanged drug level at 100 mg/kg, po; assay type: ADME, organism-based; conditions: in vivo
[2] = system: Escherichia coli; test: Antimicrobial activity against uropathogenic Escherichia coli infected in chronic mouse cystitis model assessed as reduction in bacterial levels at 100 mg/kg, po administered as single dose relative to untreated control; assay type: functional
[3] = system: Mus musculus; test: Time duration maintaining effective drug urine level in mouse at 10 mg/kg, ip; assay type: ADME, organism-based; conditions: in vivo
[4] = system: Mus musculus; test: Time duration maintaining >10 mM urine level in mouse at 50 mg/kg, po; assay type: ADME, organism-based; conditions: in vivo
[5] = Binding affinity to Pseudomonas aeruginosa LecA
[6] = Binding affinity to Pseudomonas aeruginosa LecB
[7] = Inhibition of Pseudomonas aeruginosa LecA by ELISA method
[8] = system: Streptococcus suis; test: […] of Streptococcus suis by hemagglutination inhibition assay; assay type: functional, organism-based

In the case of `CNC(=O)c1cc(C(=O)NC)cc(-c2ccc(O[C@H]3O[C@H](CO)[C@@H](O)[C@H](O)[C@@H]3O)cc2)c1`, the Stability [1] is reported as > 95%, the “fold change (FC)” value [2] is reported as 3 and the Time [3] is reported as 8 h.

For `CNC(=O)c1cc(C(=O)NC)cc(-c2ccc(O[C@H]3O[C@H](CO)[C@@H](O)[C@H](O)[C@@H]3O)c(C)c2)c1`, the Time [4] was 6 h.

For `CC(C)C[C@H](NC(=O)[C@@H]1CCCN1C(=O)[C@H](CCCCN)NC(=O)c1ccc(O[C@@H]2O[C@H](CO)[C@H](O)[C@H](O)[C@H]2O)cc1)C(N)=O`, the Kd [5] was 4200 nM.

With `[N-]=[N+]=NCC(=O)Nc1ccc(O[C@@H]2O[C@H](CO)[C@H](O)[C@H](O)[C@H]2O)cc1` the Kd [5] was 5800 nM.

In the case of `OC[C@H]1O[C@@H](Oc2ccc3ccccc3c2)[C@H](O)[C@@H](O)[C@H]1O`, the Kd [5] is reported as 4200 nM.

`COC(=O)c1cn([C@@H]2O[C@H](CO)[C@@H](O[C@@H]3O[C@H](C)[C@@H](O)[C@@H](O)[C@@H]3O)[C@H](O)[C@H]2NC(C)=O)nn1` showed a Kd [6] of 290 nM.

For `CO[C@H]1O[C@H](CNS(=O)(=O)c2c(C)cc(C)cc2C)[C@@H](O)[C@H](O)[C@@H]1O`, the Kd [6] was 3300 nM.

With `CC(C)(C)c1cc2c(Oc3cn(CC(=O)NCCOCCO[C@@H]4O[C@H](CO)[C@H](O)[C@H](O)[C@H]4O)nn3)c(c1)Cc1cc(C(C)(C)C)cc(c1Oc1cn(CC(=O)NCCOCCO[C@@H]3O[C@H](CO)[C@H](O)[C@H](O)[C@H]3O)nn1)Cc1cc(C(C)(C)C)cc(c1Oc1cn(CC(=O)NCCOCCO[C@@H]3O[C@H](CO)[C@H](O)[C@H](O)[C@H]3O)nn1)Cc1cc(C(C)(C)C)cc(c1Oc1cn(CC(=O)NCCOCCO[C@@H]3O[C@H](CO)[C@H](O)[C@H](O)[C@H]3O)nn1)C2` the Kd [5] was 90 nM.

In the case of `O=C(Cn1cc(CCC(=O)N[C@H]2[C@@H]3OC[C@H]4O[C@@H](OC[C@H]5O[C@@H](OC[C@H]6O[C@@H](OC[C@@H](O3)[C@@H](O)[C@@H]2O)[C@H](NC(=O)CCc2cn(CC(=O)Nc3ccc(O[C@@H]7O[C@H](CO)[C@H](O)[C@H](O)[C@H]7O)cc3)nn2)[C@@H](O)[C@@H]6O)[C@H](NC(=O)CCc2cn(CC(=O)Nc3ccc(O[C@@H]6O[C@H](CO)[C@H](O)[C@H](O)[C@H]6O)cc3)nn2)[C@@H](O)[C@@H]5O)[C@H](NC(=O)CCc2cn(CC(=O)Nc3ccc(O[C@@H]5O[C@H](CO)[C@@H](O)[C@H](O)[C@H]5O)cc3)nn2)[C@@H](O)[C@@H]4O)nn1)Nc1ccc(O[C@@H]2O[C@H](CO)[C@@H](O)[C@H](O)[C@H]2O)cc1`, the Kd [5] is reported as 79 nM.

Work on `OC[C@H]1O[C@@H](OCc2cn([C@H]3[C@H](O)[C@@H](O)[C@H](n4cc([C@@H]5O[C@H](CO)[C@@H](n6cc(CO[C@@H]7O[C@H](CO)[C@H](O)[C@H](O)[C@H]7O)nn6)[C@H](O)[C@H]5O)nn4)O[C@@H]3CO)nn2)[C@H](O)[C@@H](O)[C@H]1O` yielded an IC50 [7] of 3500 nM.

Work on `OC[C@H]1O[C@@H](OCc2cn([C@H]3[C@H](O)[C@@H](O)[C@H](c4cn([C@H]5[C@H](O)[C@@H](O)[C@H](n6cc([C@@H]7O[C@H](CO)[C@@H](n8cc([C@@H]9O[C@H](CO)[C@@H](n%10cc(CO[C@@H]%11O[C@H](CO)[C@H](O)[C@H](O)[C@H]%11O)nn%10)[C@H](O)[C@H]9O)nn8)[C@H](O)[C@H]7O)nn6)O[C@@H]5CO)nn4)O[C@@H]3CO)nn2)[C@H](O)[C@@H](O)[C@H]1O` yielded an IC50 [7] of 840 nM.

With `COc1ccc(O[C@@H]2O[C@H](CO)[C@H](O[C@H]3O[C@H](CO)[C@H](O)[C@H](NC(=O)Nc4ccccc4)[C@H]3O)[C@H](O)[C@H]2O)cc1` the IC50 [8] was 30 nM.

Work on `COCO[C@H]1[C@@H](O[C@@H]2[C@H](O)[C@@H](O)[C@H](Oc3ccc(OC)cc3)O[C@@H]2CO)O[C@H](CO)[C@H](O)[C@@H]1O` yielded an IC50 [8] of 50 nM.

For `O=C(CCSCC(CSCCC(=O)NCCO[C@@H]1O[C@H](CO)[C@H](O[C@H]2O[C@H](CO)[C@H](O)[C@H](O)[C@H]2O)[C@H](O)[C@H]1O)(CSCCC(=O)NCCO[C@@H]1O[C@H](CO)[C@H](O[C@H]2O[C@H](CO)[C@H](O)[C@H](O)[C@H]2O)[C@H](O)[C@H]1O)CSCCC(=O)NCCO[C@@H]1O[C@H](CO)[C@H](O[C@H]2O[C@H](CO)[C@H](O)[C@H](O)[C@H]2O)[C@H](O)[C@H]1O)NCCO[C@@H]1O[C@H](CO)[C@H](O[C@H]2O[C@H](CO)[C@H](O)[C@H](O)[C@H]2O)[C@H](O)[C@H]1O`, the IC50 [8] was 2 nM.

With `COC(=O)c1cc(OCCNC(=O)c2cc(OCCNC(=O)COCC(=O)NCCO[C@@H]3O[C@H](CO)[C@H](O[C@H]4O[C@H](CO)[C@H](O)[C@H](O)[C@H]4O)[C@H](O)[C@H]3O)cc(OCCNC(=O)COCC(=O)NCCO[C@@H]3O[C@H](CO)[C@H](O[C@H]4O[C@H](CO)[C@H](O)[C@H](O)[C@H]4O)[C@H](O)[C@H]3O)c2)cc(OCCNC(=O)c2cc(OCCNC(=O)COCC(=O)NCCO[C@@H]3O[C@H](CO)[C@H](O[C@H]4O[C@H](CO)[C@H](O)[C@H](O)[C@H]4O)[C@H](O)[C@H]3O)cc(OCCNC(=O)COCC(=O)NCCO[C@@H]3O[C@H](CO)[C@H](O[C@H]4O[C@H](CO)[C@H](O)[C@H](O)[C@H]4O)[C@H](O)[C@H]3O)c2)c1` the IC50 [8] was 0.3 nM.

With `COc1ccc(O[C@@H]2O[C@H](CO)[C@H](O[C@H]3O[C@H](CO)[C@H](O)[C@H](O)[C@H]3O)[C@H](O)[C@H]2O)cc1` the IC50 [8] was 310 nM.

Work on `OC[C@H]1O[C@@H](Sc2ccc3ccccc3c2)[C@H](O)[C@@H](O)[C@H]1O` yielded a Kd [5] of 6300 nM.

With `CC(=O)N[C@H]1C(O)O[C@H](CO)[C@@H](O[C@@H]2O[C@@H](C)[C@@H](O)[C@@H](O)[C@@H]2O)[C@@H]1O[C@@H]1O[C@H](CO)[C@H](O)[C@H](O)[C@H]1O` (stereo partly drawn) the Kd [6] was 210 nM.

`OC[C@H]1O[C@@H](OCc2cn([C@H]3[C@H](O)[C@@H](O)[C@H](c4cn([C@H]5[C@H](O)[C@@H](O)[C@H](n6cc([C@@H]7O[C@H](CO)[C@@H](n8cc(CO[C@@H]9O[C@H](CO)[C@H](O)[C@H](O)[C@H]9O)nn8)[C@H](O)[C@H]7O)nn6)O[C@@H]5CO)nn4)O[C@@H]3CO)nn2)[C@H](O)[C@@H](O)[C@H]1O` gave a Kd [5] of 28 nM and an IC50 [7] of 2.7 nM.

Compound `O=C[C@H](O)[C@@H](O)[C@@H](O)[C@H](O)CO` [GALACTOSE] has a Kd [5] of 87500 nM.
